Data from patent US11725002B2, “Detection reagents and kit for identifying oxidized state and glycated state of low-density lipoproteins” (FUSO PHARMACEUTICAL INDUSTRIES, LTD., priority 2017, dated 2023).

Assays:
lipid radicals in LDL = test: Fluorescence detection of lipid radicals in LDL with NBD-Pen
Description: To a solution of 20 μg protein/ml of LDL and 10 μM of NBD-Pen in phosphate buffered saline (PBS) containing 0.5% of MeCN were added 0-3 μM of CuSO4, FeSO4 or Hemin, to generate lipid radicals.
Specifically, to a solution of 20 μg protein/ml of LDL and 10 μM of NBD-Pen in phosphate buffered saline (PBS; pH 7.4) containing 0.5% of MeCN were added 0-3 μM of Hemin, to generate lipid radicals. After incubation for 60 minutes at 37° C., these reacted solutions were investigated by the respective methods.
For fluorescence detection using NBD-Pen according to the present invention, the fluorescence intensities obtained in Example 1 were expressed as ratios based on the results without addition of Hemin.

[1] = test system: plaques of thoracic aorta; test: Fluorescence mapping of lipid oxide in aorta of arteriosclerosis model mouse; format: in vivo, Apo-E knockout mouse; conditions: high fat diet 3 weeks, 500 μM/kg intraperitoneal, 15 minutes after administration, 470 nm/530 nm
Description: A 6-week-old male Apo-E knockout mouse (Apo−/−) was fed with a high fat diet, and 3 weeks later, NBD-Pen was administered at 500 μM/kg by intraperitoneal injection.
Fifteen minutes after NBD-Pen administration, the mouse was subjected to three types of mixed anesthesia and sacrificed, and the thoracic aorta was immediately removed. […] An oil red stained image of plaques of the same aortic sample was taken with a digital camera (FIG. 7b).

[2] = Lipid peroxide (LOOH) detection in LDL with fluorescent probe DPPP; conditions: concentration range used in Example 2
Description: The absorption band around 234 nm of conjugated dienes formed during lipid oxidation was tracked by absorbance spectrophotometry. In addition, a measurement was performed by use of diphenyl-1-pyrenylphosphate (DPPP), which is a lipid peroxide (LOOH) detection fluorescent probe.

Molecule	fluorescence intensities (λex: 470 nm, λem: 530 nm) (lipid radicals in LDL; 20 μg protein/ml LDL, 10 μM NBD-Pen, 0-3 μM CuSO4, FeSO4 or Hemin, 60 minutes at 37° C.)	sensitivity of fluorescence detection (lipid radicals in LDL; Hemin addition, compared with Cu2+ and Fe2+)	match of NBD-Pen fluorescence areas with oil-red stained plaques [1]	detection of lipid peroxides [2]
2,2,6-trimethyl-4-(4-nitrobenzo[1,2,5]oxadiazol-7-ylamino)-6-pentylpiperadine-1-oxyl [NBD-Pen]	increased in a concentration-dependent manner	high sensitivity of fluorescence detection	completely matched	–
O=P(Oc1ccccc1)(Oc1ccccc1)Oc1ccc2ccc3cccc4ccc1c2c34 [DPPP, diphenyl-1-pyrenylphosphate]	–	–	–	neither method could detect lipid peroxides
